Results as given in patent US20080009418A1, “Selective Inhibitors” (Alchemia LTD., priority 2004, published 2008).

Experiments:
Human Melanocortin (MC3) = target: T1, Human Melanocortin (MC3) (Homo sapiens, UniProt P41968); assay: Radioligand binding, human melanocortin MC3 membranes, FlashPlate, [125I]-NDP-αMSH; conditions: compound at 10 μM, [125I]-NDP-αMSH; for A3: inhibition of radioligand binding: FlashPlate
T1 construct: purchased Perkin Elmer Biosignal
Outline: (§1)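 Cloned human receptor membranes were coated onto FlashPlate wells and incubated with radioligand and compound (added from a 0.5 mM DMSO daughter plate) for 1 hour at room temperature in the dark. Scintillation counting gave percent inhibition, with DMSO defining total and reference ligand defining non-specific binding.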

Human μ-opioid (MOP) = target: T2, Human μ-opioid (MOP) (Homo sapiens, UniProt P35372); assay: Radioligand binding, human μ-opioid (MOP) membranes, FlashPlate, [3H]-Naloxone; conditions: compound at 10 μM, [3H]-Naloxone; for A7: inhibition of radioligand binding: FlashPlate
T2 construct: purchased Perkin Elmer Biosignal
T2 sequence (P35372 whole entry): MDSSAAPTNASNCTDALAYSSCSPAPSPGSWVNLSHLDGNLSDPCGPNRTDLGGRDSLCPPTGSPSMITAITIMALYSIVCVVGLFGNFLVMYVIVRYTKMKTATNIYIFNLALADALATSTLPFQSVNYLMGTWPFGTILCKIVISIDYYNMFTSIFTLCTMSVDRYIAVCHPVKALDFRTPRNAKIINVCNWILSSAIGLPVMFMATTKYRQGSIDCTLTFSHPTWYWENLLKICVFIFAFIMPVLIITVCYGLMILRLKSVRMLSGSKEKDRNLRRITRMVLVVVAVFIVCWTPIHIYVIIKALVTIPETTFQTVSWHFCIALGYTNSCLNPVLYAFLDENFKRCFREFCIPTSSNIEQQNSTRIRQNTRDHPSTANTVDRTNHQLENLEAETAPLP
Outline: as §1

Human opioid (ORL1) = target: T3, Human opioid (ORL1) (Homo sapiens, UniProt P41146); assay: Radioligand binding, human opioid ORL1 membranes, FlashPlate, [125I]-Nociceptin; conditions: compound at 10 μM, [125I]-Nociceptin; for A10: inhibition of radioligand binding: FlashPlate
T3 construct: purchased Perkin Elmer Biosignal
T3 sequence (P41146 whole entry): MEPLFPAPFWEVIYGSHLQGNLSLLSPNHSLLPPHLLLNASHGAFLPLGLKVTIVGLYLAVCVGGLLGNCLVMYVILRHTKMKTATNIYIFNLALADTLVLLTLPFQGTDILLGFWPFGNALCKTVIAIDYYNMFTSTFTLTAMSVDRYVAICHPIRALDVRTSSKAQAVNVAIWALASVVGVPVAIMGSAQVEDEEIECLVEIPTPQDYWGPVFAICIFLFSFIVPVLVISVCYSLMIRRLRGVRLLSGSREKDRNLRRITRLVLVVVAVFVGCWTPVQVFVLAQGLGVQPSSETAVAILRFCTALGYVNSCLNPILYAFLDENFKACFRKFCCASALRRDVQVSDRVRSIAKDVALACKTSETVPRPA
Outline: as §1

[1] = target: T4, Human melanin-concentrating hormone (MCH1) (Homo sapiens, UniProt Q99705); assay: Radioligand binding, human melanin-concentrating hormone MCH1 membranes, FlashPlate, [125I]-S36057; conditions: compound at 10 μM; for A6: inhibition of radioligand binding: [125I]-S36057, FlashPlate
T4 construct: purchased Perkin Elmer Biosignal
T4 sequence (Q99705 whole entry): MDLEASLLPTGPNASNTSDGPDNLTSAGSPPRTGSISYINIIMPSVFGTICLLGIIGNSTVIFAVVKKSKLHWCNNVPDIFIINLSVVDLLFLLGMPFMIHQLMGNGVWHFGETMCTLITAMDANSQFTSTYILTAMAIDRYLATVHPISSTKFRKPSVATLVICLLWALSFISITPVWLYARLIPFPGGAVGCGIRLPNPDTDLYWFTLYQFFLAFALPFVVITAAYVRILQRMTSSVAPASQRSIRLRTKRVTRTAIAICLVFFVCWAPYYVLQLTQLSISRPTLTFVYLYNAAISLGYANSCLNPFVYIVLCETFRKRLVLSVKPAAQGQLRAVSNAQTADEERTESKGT
Outline: as §1

Human melanocortin (MC5) = target: T5, Human melanocortin (MC5) (Homo sapiens, UniProt P33032); assay: Radioligand binding, human melanocortin MC5 membranes, FlashPlate, [125I]-NDP-αMSH; conditions: compound at 10 μM, [125I]-NDP-αMSH; for A5: inhibition of radioligand binding: FlashPlate
T5 construct: purchased Perkin Elmer Biosignal
T5 sequence (P33032 whole entry): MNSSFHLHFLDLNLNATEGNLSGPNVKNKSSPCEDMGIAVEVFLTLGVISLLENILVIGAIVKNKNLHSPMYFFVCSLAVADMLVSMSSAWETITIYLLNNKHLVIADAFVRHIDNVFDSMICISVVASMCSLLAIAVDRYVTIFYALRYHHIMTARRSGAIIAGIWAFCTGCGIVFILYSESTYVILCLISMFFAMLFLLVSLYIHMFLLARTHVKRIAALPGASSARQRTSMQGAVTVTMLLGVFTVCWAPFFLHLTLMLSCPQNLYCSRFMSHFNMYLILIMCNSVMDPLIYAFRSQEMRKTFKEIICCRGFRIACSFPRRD
Outline: as §1

[2] = target: T6, Human neuropeptide Y (NPY-Y1) (Homo sapiens, UniProt P25929); assay: Radioligand binding, human neuropeptide Y NPY-Y1 membranes, FlashPlate, [125I]-PYY; conditions: compound at 10 μM, [125I]-PYY; for A9: inhibition of radioligand binding: FlashPlate
T6 construct: purchased Perkin Elmer Biosignal
T6 sequence (P25929 1-384): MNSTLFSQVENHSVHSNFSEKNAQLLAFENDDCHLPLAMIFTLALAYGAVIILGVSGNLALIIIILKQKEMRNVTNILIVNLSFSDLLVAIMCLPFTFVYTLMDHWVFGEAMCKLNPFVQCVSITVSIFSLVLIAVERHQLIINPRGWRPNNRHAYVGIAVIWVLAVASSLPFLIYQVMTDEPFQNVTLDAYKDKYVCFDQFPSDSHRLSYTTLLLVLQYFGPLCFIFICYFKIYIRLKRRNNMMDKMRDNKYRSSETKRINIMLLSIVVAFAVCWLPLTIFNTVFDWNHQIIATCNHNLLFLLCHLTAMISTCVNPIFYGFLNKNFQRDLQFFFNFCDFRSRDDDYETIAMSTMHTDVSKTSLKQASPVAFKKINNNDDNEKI
Outline: as §1

Human δ-opioid (DOP) = target: T7, Human δ-opioid (DOP) (Homo sapiens, UniProt P41143); assay: Radioligand binding, human δ-opioid (DOP) membranes, FlashPlate, [3H]-Bremazocine; conditions: compound at 10 μM, [3H]-Bremazocine; for A1: inhibition of radioligand binding: FlashPlate
T7 construct: purchased Perkin Elmer Biosignal
T7 sequence (P41143 whole entry): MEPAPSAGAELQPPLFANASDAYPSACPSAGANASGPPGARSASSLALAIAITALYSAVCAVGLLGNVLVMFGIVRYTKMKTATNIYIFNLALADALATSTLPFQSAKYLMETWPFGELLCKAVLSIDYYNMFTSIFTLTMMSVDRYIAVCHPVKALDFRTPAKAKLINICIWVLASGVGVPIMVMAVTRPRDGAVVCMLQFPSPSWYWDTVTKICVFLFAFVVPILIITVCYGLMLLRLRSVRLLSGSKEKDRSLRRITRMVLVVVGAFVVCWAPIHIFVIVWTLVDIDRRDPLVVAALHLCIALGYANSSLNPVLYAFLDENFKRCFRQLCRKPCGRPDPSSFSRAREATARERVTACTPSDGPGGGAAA
Outline: as §1

Human Melanocortin (MC4) = target: T8, Human Melanocortin (MC4) (Homo sapiens, UniProt P32245); assay: Radioligand binding, human melanocortin MC4 membranes, FlashPlate, [125I]-NDP-αMSH; conditions: compound at 10 μM, [125I]-NDP-αMSH; for A4: inhibition of radioligand binding: FlashPlate
T8 construct: purchased Perkin Elmer Biosignal
T8 sequence (P32245 whole entry): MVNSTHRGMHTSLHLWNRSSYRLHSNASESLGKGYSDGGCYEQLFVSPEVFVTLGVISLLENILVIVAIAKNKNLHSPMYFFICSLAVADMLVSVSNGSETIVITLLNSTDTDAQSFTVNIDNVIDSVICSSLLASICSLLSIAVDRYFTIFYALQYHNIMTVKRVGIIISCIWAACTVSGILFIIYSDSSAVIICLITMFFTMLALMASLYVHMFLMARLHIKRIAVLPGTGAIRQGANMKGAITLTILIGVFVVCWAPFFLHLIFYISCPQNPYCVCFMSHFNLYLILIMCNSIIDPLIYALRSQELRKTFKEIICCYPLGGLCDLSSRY
Outline: as §1

Mouse urotensin (mUR2) = target: T9, Mouse urotensin (mUR2) (Mus musculus, UniProt Q8VIH9); assay: Radioligand binding, mouse urotensin mUR2 membranes, FlashPlate, [125I]-Urotensin II; conditions: compound at 10 μM, [125I]-Urotensin II; for A11: inhibition of radioligand binding: FlashPlate
T9 construct: purchased Perkin Elmer Biosignal
T9 sequence (Q8VIH9 1-385): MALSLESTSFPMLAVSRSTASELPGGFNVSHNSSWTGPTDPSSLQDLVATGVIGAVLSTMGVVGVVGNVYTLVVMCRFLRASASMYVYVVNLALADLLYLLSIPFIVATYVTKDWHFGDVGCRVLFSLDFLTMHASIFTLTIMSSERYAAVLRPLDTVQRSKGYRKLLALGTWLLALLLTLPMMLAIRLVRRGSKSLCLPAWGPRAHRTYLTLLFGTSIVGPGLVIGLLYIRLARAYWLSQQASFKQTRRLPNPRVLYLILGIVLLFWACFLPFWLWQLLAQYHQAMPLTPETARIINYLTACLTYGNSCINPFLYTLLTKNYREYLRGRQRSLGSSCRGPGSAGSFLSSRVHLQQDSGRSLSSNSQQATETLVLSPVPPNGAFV
Outline: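 Cloned mouse urotensin (mUR2) receptor membranes from Perkin Elmer Biosignal were immobilized in FlashPlate microplates using a proprietary coating. Each well got 19.5 μl buffer, then 0.5 μl of DMSO, reference ligand, or compound. Adding 5 μl of [125I]-Urotensin II, diluted to 5× final concentration in binding buffer, started binding. Plates were sealed with TopSeal-A and incubated 1 hour at room temperature in the dark. Wells were counted for 30 seconds each on a TopCount after a 60-second delay, and percentage inhibition was calculated.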

Human neurokinin (NK1) = target: T10, Human neurokinin (NK1) (Homo sapiens, UniProt P25103); assay: Radioligand binding, human neurokinin NK1 membranes, filtration, [125I]-Substance P; conditions: compound at 10 μM, [125I]-Substance P; for A8: inhibition of radioligand binding: filtration
T10 construct: purchased Perkin Elmer Biosignal
T10 sequence (P25103 whole entry): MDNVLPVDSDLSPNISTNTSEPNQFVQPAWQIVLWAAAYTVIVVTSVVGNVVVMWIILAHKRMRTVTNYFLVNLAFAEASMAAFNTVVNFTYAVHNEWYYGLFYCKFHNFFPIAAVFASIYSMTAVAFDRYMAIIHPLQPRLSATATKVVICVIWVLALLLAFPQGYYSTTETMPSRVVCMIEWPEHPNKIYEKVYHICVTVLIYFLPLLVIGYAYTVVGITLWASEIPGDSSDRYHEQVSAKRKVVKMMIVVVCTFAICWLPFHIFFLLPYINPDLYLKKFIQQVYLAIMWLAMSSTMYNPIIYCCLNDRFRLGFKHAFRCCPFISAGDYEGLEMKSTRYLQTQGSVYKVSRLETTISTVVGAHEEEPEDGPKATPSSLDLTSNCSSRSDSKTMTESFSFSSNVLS
Outline: (§2)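 Membranes from cloned human receptors were incubated with compound and radioligand for 1 hour at room temperature. Bound ligand was collected on 0.3% PEI-soaked filters, washed with cold 50 mM Tris-HCl pH 7.4, and counted by scintillation. Percent inhibition was computed against DMSO totals and reference-ligand nonspecific wells.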

Human κ-Opioid (KOP) = target: T11, Human κ-Opioid (KOP) (Homo sapiens, UniProt P41145); assay: Radioligand binding, human κ-opioid (KOP) membranes, filtration, [3H]-Diprenorphine; conditions: compound at 10 μM, [3H]-Diprenorphine; for A2: inhibition of radioligand binding: filtration
T11 construct: purchased Perkin Elmer Biosignal
T11 sequence (P41145 whole entry): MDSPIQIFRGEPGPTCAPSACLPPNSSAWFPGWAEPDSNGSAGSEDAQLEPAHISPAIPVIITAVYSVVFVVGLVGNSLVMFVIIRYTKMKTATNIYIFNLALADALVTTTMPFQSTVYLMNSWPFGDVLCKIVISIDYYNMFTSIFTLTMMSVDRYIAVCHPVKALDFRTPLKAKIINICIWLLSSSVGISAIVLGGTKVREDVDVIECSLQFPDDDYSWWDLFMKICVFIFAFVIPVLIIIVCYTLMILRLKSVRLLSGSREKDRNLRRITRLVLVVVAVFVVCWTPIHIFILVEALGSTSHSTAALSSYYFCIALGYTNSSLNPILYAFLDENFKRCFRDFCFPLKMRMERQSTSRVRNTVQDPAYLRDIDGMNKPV
Outline: as §2

T1 sequence (P41968 whole entry): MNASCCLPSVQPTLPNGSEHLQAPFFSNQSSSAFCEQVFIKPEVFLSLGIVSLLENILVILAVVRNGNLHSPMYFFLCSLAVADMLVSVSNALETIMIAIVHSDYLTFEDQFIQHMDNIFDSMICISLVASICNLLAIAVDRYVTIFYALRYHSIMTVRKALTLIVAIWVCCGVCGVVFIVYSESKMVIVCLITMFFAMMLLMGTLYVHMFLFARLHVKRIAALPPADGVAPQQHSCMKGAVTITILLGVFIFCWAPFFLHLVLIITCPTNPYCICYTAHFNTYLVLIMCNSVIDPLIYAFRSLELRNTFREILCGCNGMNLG

Compound | A3: inhibition of radioligand binding (Human Melanocortin (MC3)) | A7: inhibition of radioligand binding (Human μ-opioid (MOP)) | A10: inhibition of radioligand binding (Human opioid (ORL1)) | A6: inhibition of radioligand binding [1] | A5: inhibition of radioligand binding (Human melanocortin (MC5)) | A9: inhibition of radioligand binding [2] | A1: inhibition of radioligand binding (Human δ-opioid (DOP)) | A4: inhibition of radioligand binding (Human Melanocortin (MC4)) | A11: inhibition of radioligand binding (Mouse urotensin (mUR2)) | A8: inhibition of radioligand binding (Human neurokinin (NK1)) | A2: inhibition of radioligand binding (Human κ-Opioid (KOP)) | other results
COCC1OC(OCc2ccc(Cl)cc2)C(NC(=O)CCCN)C(OCc2ccc(-c3ccccc3)cc2)C1O (stereo not drawn) [compound 207] | + (“+” indicates greater than 50% inhibition at 10 μM) | − (“−” indicates less than 50% inhibition at 10 μM) | − (“−” indicates less than 50% inhibition at 10 μM) | − (“−” indicates less than 50% inhibition at 10 μM) | + (“+” indicates greater than 50% inhibition at 10 μM) | − (“−” indicates less than 50% inhibition at 10 μM) | − (“−” indicates less than 50% inhibition at 10 μM) | − (“−” indicates less than 50% inhibition at 10 μM) | − (“−” indicates less than 50% inhibition at 10 μM) | + (“+” indicates greater than 50% inhibition at 10 μM) | − (“−” indicates less than 50% inhibition at 10 μM) | 
COCC1OC(OCc2ccc3ccccc3c2)C(NC(=O)CNC(=N)N)C(OCc2ccc(Cl)cc2)C1O (stereo not drawn) [compound 236] | + (“+” indicates greater than 50% inhibition at 10 μM) | − (“−” indicates less than 50% inhibition at 10 μM) | − (“−” indicates less than 50% inhibition at 10 μM) | + (“+” indicates greater than 50% inhibition at 10 μM) | + (“+” indicates greater than 50% inhibition at 10 μM) | − (“−” indicates less than 50% inhibition at 10 μM) | − (“−” indicates less than 50% inhibition at 10 μM) | + (“+” indicates greater than 50% inhibition at 10 μM) | − (“−” indicates less than 50% inhibition at 10 μM) | + (“+” indicates greater than 50% inhibition at 10 μM) | − (“−” indicates less than 50% inhibition at 10 μM) | 
COC[C@H]1OC(OCCc2ccccc2)[C@H](NC(=O)CCCN)[C@@H](OCc2cccc(O)c2)[C@@H]1O (stereo partly drawn) [compound 140] |  |  |  |  |  |  |  |  |  |  |  | A3 radioligand binding, percentage inhibition (Human Melanocortin (MC3)): − (“−” indicates less than 50% inhibition at 10 μM); A7 radioligand binding, percentage inhibition (Human μ-opioid (MOP)): − (“−” indicates less than 50% inhibition at 10 μM); A10 radioligand binding, percentage inhibition (Human opioid (ORL1)): − (“−” indicates less than 50% inhibition at 10 μM); A6 radioligand binding, percentage inhibition ([1]; [125I]-S36057): − (“−” indicates less than 50% inhibition at 10 μM); A5 radioligand binding, percentage inhibition (Human melanocortin (MC5)): − (“−” indicates less than 50% inhibition at 10 μM); A9 radioligand binding, percentage inhibition [2]: − (“−” indicates less than 50% inhibition at 10 μM); A1 radioligand binding, percentage inhibition (Human δ-opioid (DOP)): − (“−” indicates less than 50% inhibition at 10 μM); A4 radioligand binding, percentage inhibition (Human Melanocortin (MC4)): − (“−” indicates less than 50% inhibition at 10 μM); A11 radioligand binding, percentage inhibition (Mouse urotensin (mUR2)): − (“−” indicates less than 50% inhibition at 10 μM); A8 radioligand binding, percentage inhibition (Human neurokinin (NK1)): + (“+” indicates greater than 50% inhibition at 10 μM); A2 radioligand binding, percentage inhibition (Human κ-Opioid (KOP)): − (“−” indicates less than 50% inhibition at 10 μM)
